Laboratory results as given in PubChem BioAssay (NCI).
“And” between values parts separate entries of the source, which are not always exact repeats. Equal values may be shown once.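 Briefly, cells in 96-well plates were exposed to five compound concentrations for 48 h, and endpoints were estimated by linear interpolation. GI50 is the concentration that inhibits growth by half. TGI: total growth inhibition.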

Legend:
Test in all cases: NCI tumour cell line growth inhibition, 48 h
LOX IMVI melanoma = tested on: LOX IMVI melanoma
COLO 205 colon = tested on: COLO 205 colon
M14 melanoma = tested on: M14 melanoma
UO-31 renal = tested on: UO-31 renal
KM12 colon = tested on: KM12 colon
786-0 renal = tested on: 786-0 renal
IGROV1 ovarian = tested on: IGROV1 ovarian
OVCAR-3 ovarian = tested on: OVCAR-3 ovarian
PC-3 prostate = tested on: PC-3 prostate
OVCAR-4 ovarian = tested on: OVCAR-4 ovarian

Compound | TGI (LOX IMVI melanoma) | TGI (COLO 205 colon) | TGI (M14 melanoma) | TGI (UO-31 renal) | TGI (KM12 colon) | TGI (786-0 renal) | TGI (IGROV1 ovarian) | TGI (OVCAR-3 ovarian) | GI50 (LOX IMVI melanoma) | GI50 (IGROV1 ovarian) | GI50 (PC-3 prostate) | TGI (PC-3 prostate) | GI50 (COLO 205 colon) | GI50 (M14 melanoma) | GI50 (OVCAR-4 ovarian) | TGI (OVCAR-4 ovarian) | GI50 (UO-31 renal) | GI50 (KM12 colon) | GI50 (786-0 renal) | GI50 (OVCAR-3 ovarian)
COCC(O)CN1C(N)=NC(O)C1O (stereo not drawn) | > 100 µM | > 100 µM | > 100 µM | > 100 µM | > 100 µM | > 100 µM | – | – | – | – | – | – | – | – | – | – | – | – | – | –
CCN(CC)CC(C(=O)Nc1c(C)cccc1C)/C(C)=N/NC(N)=S (stereo not drawn) | > 100 µM | > 100 µM | > 100 µM | > 100 µM | > 100 µM | > 100 µM | > 100 µM | > 100 µM | – | – | – | – | – | – | – | – | – | – | – | –
Cc1cc(N2CCOCC2)nc(N(CCNc2ccnc3cc(Cl)ccc23)Cc2cccs2)n1 | 3.18 µM | 3.25 µM | 3.41 µM | 2.75 µM | 5.34 µM | 3.12 µM | 4.97 µM | – | 1.72 µM | 1.96 µM | 1.8 µM | 4.84 µM | 1.62 µM | 1.79 µM | 2.37 µM | 7.59 µM | 1.39 µM | 2.23 µM | 1.69 µM | –
Cc1cn2cc(-c3ccncc3)nc2s1 | > 84.4 µM | > 100 µM | > 100 µM | > 100 µM | > 100 µM | > 100 µM | > 100 µM | > 100 µM | – | – | – | – | – | – | – | > 100 µM | – | – | – | –
O=C(Nc1cccc(Cl)c1)c1cc2cc(N=Nc3ccc(Br)cc3)ccc2oc1=O | 45.1 µM | > 100 µM | 52.9 µM | > 100 µM | 76 µM | > 100 µM | > 100 µM | > 100 µM | – | – | – | – | – | – | – | 88.7 µM | – | – | – | –
CC/C(=C(\c1ccccc1)c1ccc(OCC[N+](C)(C)C)cc1)c1ccccc1 | 27.7 µM | 20.4 µM | 30.1 µM | 38.7 µM | 29.8 µM | 27.9 µM | 27.8 µM | 20.3 µM | – | – | – | – | – | – | – | 30.9 µM | – | – | – | –
Cc1ccc(CCNC(=S)SCC(NC(=O)CCC(N)C(=O)O)C(=O)NCC(=O)O)cc1 (stereo not drawn) | 1.55 µM | 6.63 µM | 2.56 µM | 2.33 µM | 2.68 µM | 1.6 µM | 4.77 µM | 5.27 µM | – | – | – | – | – | – | – | 7.41 µM | – | – | – | –
Nc1cc2[nH]c(=O)c3cc(Cl)ccc3c2cc1Cl | 53.6 µM | > 100 µM | > 100 µM | 30.5 µM | > 100 µM | > 100 µM | 23.5 µM | 29.4 µM | – | – | – | – | – | – | – | > 100 µM | – | – | – | –
CCCC1C2=C(C(=O)OC2=O)C2C(CC)CC3=C(C(=O)OC3=O)C12 (stereo not drawn) | > 100 µM | > 100 µM | > 100 µM | > 100 µM | > 100 µM | > 100 µM | > 100 µM | > 100 µM | – | – | – | > 100 µM | – | – | – | – | – | – | – | –
Oc1ccc(-c2nc(-c3ccc4oc5ccc(-c6[nH]c(-c7ccc(O)cc7)nc6-c6ccccc6)cc5c4c3)c(-c3ccccc3)[nH]2)cc1 | – | 8.18 µM | > 100 µM | 22.8 µM | 7.92 µM | 29.8 µM | 96.6 µM | 15.2 µM | – | 4.54 µM | 2.93 µM | 13.5 µM | 3.09 µM | 3.9 µM | 18 µM | 96.9 µM | 6.96 µM | 2.88 µM | 5.75 µM | 4.3 µM
COc1ccc(C2CC(c3ccc(OC)c(OC)c3)=NN2C(=O)c2cc(OC)c(OC)c(OC)c2)cc1 (stereo not drawn) | > 100 µM | > 28 µM | > 100 µM | > 100 µM | > 63.1 µM | > 100 µM | > 100 µM | – | 2.47 µM | 3.32 µM | 3.57 µM | > 100 µM | 2.81 µM | 1.95 µM | > 23.8 µM | > 100 µM | 0.864 µM | 2.31 µM | 2.71 µM | –
CC(=O)OC12CCCCC1C1(CCCC1)NC2=O (stereo not drawn) | > 100 µM | – | > 100 µM | > 100 µM | > 100 µM | > 100 µM | > 100 µM | > 100 µM | – | – | – | – | – | – | – | > 100 µM | – | – | – | –
CCOC(=O)c1ccccc1NC(c1ccccc1)c1ccc2cccnc2c1O (stereo not drawn) | 11 µM | 24.1 µM | – | > 100 µM | > 100 µM | > 100 µM | 24.1 µM | 23.4 µM | 2.45 µM | 4.01 µM | 5.13 µM | > 100 µM | 3.33 µM | – | 3.21 µM | > 100 µM | 2.03 µM | 3.99 µM | 3.39 µM | 3.85 µM
COc1cccc2c1C(=N)c1c(O)c3c(c(O)c1C2=O)C[C@@](O)(C(C)=O)C[C@@H]3OC1CC(N)C(O)C(C)O1 (stereo partly drawn) | – | 2.29 µM and 4.36 µM and 2.42 µM | 4.58 µM and 1.59 µM | – | 2.55 µM and 1.94 µM and 10.4 µM | – | 6.39 µM and 9.25 µM | 5.43 µM and 4.73 µM and 13 µM | – | – | – | 2.98 µM | – | 0.705 µM and 0.206 µM | – | 7.58 µM and 7.84 µM and 8 µM | – | – | 0.0766 µM | –
Nc1n[nH]c(=O)c2c1c(Br)cn2C1OC(CO)C(O)C1O (stereo not drawn) | 15.3 µM | 28.1 µM | 30.1 µM | 26.8 µM | > 100 µM | > 100 µM | > 100 µM | > 50.8 µM | – | – | – | – | – | – | – | 26.3 µM | – | – | – | –
O=C1c2ccccc2CC1C1(O)C(=O)Nc2c(Cl)cc(Cl)cc21 (stereo not drawn) | > 100 µM | > 100 µM | > 100 µM | > 100 µM | > 100 µM | > 100 µM | – | > 100 µM | – | – | – | – | – | – | – | > 100 µM | – | – | – | –
COC(=O)C1CCC2(CC1)NC(=O)NC2=O (stereo not drawn) | > 100 µM | > 100 µM | > 100 µM | > 100 µM | > 100 µM | > 100 µM | > 100 µM | > 100 µM | – | – | – | – | – | – | – | > 100 µM | – | – | – | –
COc1ccc(/C=C(\NC(=O)c2ccccc2)c2nc3ccccc3[nH]2)cc1 | – | 75.8 µM | > 100 µM | 74.5 µM | > 100 µM | > 100 µM | > 100 µM | > 100 µM | – | – | – | – | – | – | – | > 100 µM | – | – | – | –
C[CH2][Ge]1([CH2]C)[CH2]CC2(CCN(CCCN(C)C)C2)C[CH2]1 | – | 1.12 µM and 1.77 µM | 0.624 µM | 2.48 µM and 3.68 µM | 4.02 µM and 22.2 µM | 2.87 µM | 3.42 µM and 10.8 µM | 4.99 µM and 6.87 µM | – | 1.75 µM and 4.54 µM | 1.8 µM | 4.44 µM and 1.34 µM | 0.39 µM and 1.29 µM | 0.333 µM | 0.694 µM and 4.41 µM | 6.79 µM and 11.6 µM | 1.22 µM and 1.91 µM | 1.83 µM and 10.2 µM | 1.43 µM | 2.15 µM and 2.81 µM
CCOc1ccccc1Nc1nc(C)c(C(=O)CC(=O)C(=O)Nc2ccccc2)s1 | > 100 µM | > 100 µM | > 100 µM | > 100 µM | > 100 µM | > 100 µM | > 100 µM | 63.3 µM | – | – | – | – | – | – | – | > 100 µM | – | – | – | –
